Tests used:
[1] = test system: MGMT positive human melanoma cells A375; assay: Colony formation assay (cytotoxicity), A375 melanoma cells; assay type: cell-based; details: 48-hour drug incubation, colonies counted 7-10 days later, compared at similar concentrations (FIG. 2)
Description: (§1) The cytotoxicity of TMZ, POH-TMZ, and POH-TMZ-Linoleate were studied by colony formation assay of A2058 and A375 melanoma cells. A2058 and A375 cells were harvested and made single cell suspension in culture medium (DMEM with 10% FBS, 1% Penicillin/Streptomycin). 500 cells/well were seeded into 12-well plate (tissue culture treated, from Olympus Plastics) pre-warmed culture medium at 37° C. The cells were cultured overnight for attachment to the plate. Then the medium was removed and replaced with fresh medium containing varied concentrations of drugs (or no drugs as a control) for further 48-hour incubation. After 48 hours treatment, the medium was aspirated and replaced with normal culture medium. 7-10 days later, the culture medium was aspirated, and the colonies formed inside the wells were washed with cold PBS once. Then the colonies were stained with 0.1% methylene blue (in methanol) for 4-6 hours. The plates were then washed and the formed colonies counted (the colonies formed with 20 cells or more are countable).

[2] = test system: MGMT negative human melanoma cells A2058; assay: Colony formation assay (cytotoxicity), A2058 melanoma cells; assay type: cell-based; details: 48-hour drug incubation, colonies counted 7-10 days later, compared at similar concentrations (FIG. 1)
Description: as §1

[3] = test system: human melanoma tumor cells, A2058; assay: In vivo tumor growth inhibition, subcutaneous A2058 melanoma in nude mice, topical treatment, with CD31 histology
Description: Inhibition of tumor growth by POH-TMZ-linoleate was studied in nude mice. Nude mice were injected subcutaneously with 2×10^6 human melanoma tumor cells, A2058. The melanoma cells were allowed to form a palpable nodule in the mice. When the tumor size reached 1.0-1.5 cm in diameter in any dimension, a control mouse was treated topically with a vehicle (10% DMSO in 45% Glycerol+45% ethanol), and a test mouse was topically treated with TPL (50 mM TPL working solution was reconstituted in 45% Glycerol+45% Ethanol, and 100 μl (25 mg/kg) was applied topically on the skin which covers the whole tumor). The control mouse and the test mouse were both treated twice daily for 14 days.
After the 14 days of treatment the mice were sacrificed, the tumor removed, sectioned at 8 μm, fixed with acetone, and stored at −20° C. For histological analysis, the tissues were blocked with sea block and stained with the primary antibody Rat anti Mouse (1:50) overnight following which secondary biotinylated goat anti rat antibody (1:200) was added for 45 minutes, washed and avidin biotin complex, ABC elite was added for 30 minutes, washed and then stained with AEC and counter stained with hematoxylin. Such staining was used to evaluate the endothelial marker CD31 expression, which is representative of the amounts of blood vessels in the tumor. Staining images were captured at 40× under optical microscope. […] The histological analysis results were further quantified using ImageJ software by measuring the average area of staining in the tumors of the test mouse after TPL treatment and the control mouse, where the average area of staining was calculated based on the red precipitate of the stain in μm^2. From FIG. 5, it can be seen that the average area of staining is much smaller in the tumor of the test mouse than that in the control mouse.

Row | Structure (SMILES) | colonies count (effectiveness in killing the melanoma cells) [1] | colonies count (effectiveness in killing the melanoma cells) [2] | tumor angiogenesis (CD31 staining, visual inspection) versus vehicle-treated mouse ([3]; after 14 days of topical treatment, FIGS. 4D-4F vs 4A-4C) | average area of CD31 staining in the tumor versus control mouse ([3]; after 14 days of topical treatment, ImageJ quantification, FIG. 5) | vascularization of the tumor compared with the tumor before the treatment ([3]; topical 25 mg/kg twice daily for 14 days, FIG. 3B vs FIG. 3A) | appearance of the tumor surface after treatment ([3]; topical 50 mM, 100 μl (25 mg/kg) twice daily for 14 days, FIG. 3B)
1 | C=C(C)[C@@H]1CC=C(COC(=O)NC(=O)c2ncn3c(=O)n(C)nnc23)CC1 [POH-TMZ, reference compound] | more effective than TMZ | more effective than TMZ | – | – | – | –
2 | C=C(C)[C@@H]1CC=C(COC(=O)N(C(=O)CCCCCCC/C=C\C/C=C\CCCCC)C(=O)c2ncn3c(=O)n(C)nnc23)CC1 [POH-TMZ-linoleate, (3-Methyl-4-oxo-3,4-dihydro-imidazo[5,1-d][1,2,3,5]tetrazine-8-carbonyl)-octadeca-9,12-dienoyl-carbamic acid 4-isopropenyl-cyclohex-1-enylmethyl ester] | more effective in killing the melanoma cells than POH-TMZ | more effective in killing the melanoma cells than POH-TMZ | much lower | much smaller | reduced vascularization | developed a hard surface

— US11479554B2, “Pharmaceutical compositions comprising perillyl alcohol derivatives” (NeOnc Technologies, Inc., priority 2015, dated 2022)
